Assays:
[1] = tested on: Holstein cows having somatic cell counts of 300,000/mL to 1,000,000/mL; assay: Analysis of the DHI indicators of milk after subcutaneous injection of melatonin; type: in vivo
Text: (1) According to the monthly DHI test reports from the dairy farm, Holstein cows having somatic cell counts of 300,000/mL to 1,000,000/mL are selected to be fed separately, and are ensured to have no significant difference in physical health. Season groups: spring n=90, summer n=74, autumn n=83, winter n=81 (number of cows). Age groups: 2-year-old n=23; 3-year-old n=80; 4-year-old n=66; 5-year-old n=56; 6-year-old n=27; 7-year-old n=19 (number of cows). Lactation period groups: peak-lactation n=15, mid-lactation n=38, end-lactation n=59 (number of cows) (initial-lactation: days 1-15 after calving; peak-lactation: days 16-100 after calving; mid-lactation: days 101-200 after calving; end-lactation: day 201 after calving to weaning).
(2) The dairy cows having high somatic cell counts are injected with 2 mL melatonin solution every day for 4 consecutive days in each month. 15 days after the injection, fresh milk was collected and stored in 50 mL centrifuge tubes, and was tested for the changes in somatic cell counts. The cows were fed with total mixed ration, and were fed three times at 06:00, 12:00, and 18:00 respectively. Then, the cows entered the sports ground to move freely, drink water and rest.
(3) The sampling bottles were numbered and added with 2-3 drops of potassium dichromate saturated solution, and were used for collecting the milk samples from the milk by the first milking of the cows. The milk sample for each cow was in a volume of 40 mL and placed in a centrifuge tube. After sampling, all the remaining milk was drained from the tubes which were cleaned to avoid contamination between the samples. The samples were stored at 2-7° C. The instrument for measuring the DHI indicators is Milkscan FT+&FC automatic milk compositional analyzer and somatic cell counter. The measurement was carried out in the National Laboratory for Preparation of Standard Materials of DHI.

[2] = tested on: cows; assay: Blood indicators of cows after injection of melatonin; conditions: in vivo
[3] = 2-year-old cows, after injection
[4] = 3-year-old cows, after injection
[5] = 4-year-old cows, after injection
[6] = 5-year-old cows, after injection
[7] = 6-year-old cows, after injection
[8] = 7-year-old cows, after injection
[9] = peak-lactation, after injection

SMILES: COc1ccc2[nH]cc(CCNC(C)=O)c2c1 [melatonin]
- dry matter contents [1, 3]: 13.87%±0.27
- fat contents [1, 3]: 4.54%±0.26
- lactose contents [1, 3]: 5.19%±0.03
- milk production [1, 3]: 32.12 ± 1.63 kg/day
- protein contents [1, 3]: 3.41%±0.09
- somatic cell scores [1, 3]: 3.87±0.33
- urea nitrogen contents [1, 3]: 13.90 ± 0.80 mg/dL
- dry matter contents [1, 4]: 13.57%±0.13
- fat contents [1, 4]: 4.36%±0.11
- lactose contents [1, 4]: 5.03%±0.02
- milk production [1, 4]: 32.11 ± 0.96 kg/day
- protein contents [1, 4]: 3.44%±0.04
- somatic cell scores [1, 4]: 4.31±0.18
- urea nitrogen contents [1, 4]: 13.58 ± 0.46 mg/dL
- dry matter contents [1, 5]: 14.18%±0.15
- fat contents [1, 5]: 4.69%±0.13
- lactose contents [1, 5]: 4.94%±0.03
- milk production [1, 5]: 30.03 ± 1.22 kg/day
- protein contents [1, 5]: 3.66%±0.06
- somatic cell scores [1, 5]: 4.68±0.18
- urea nitrogen contents [1, 5]: 13.32 ± 0.49 mg/dL
- dry matter contents [1, 6]: 13.87%±0.18
- fat contents [1, 6]: 4.62%±0.16
- lactose contents [1, 6]: 4.86%±0.05
- milk production [1, 6]: 33.56 ± 1.52 kg/day
- protein contents [1, 6]: 3.55%±0.07
- somatic cell scores [1, 6]: 4.04±0.19
- urea nitrogen contents [1, 6]: 14.09 ± 0.59 mg/dL
- dry matter contents [1, 7]: 14.13%±0.24
- fat contents [1, 7]: 5.27%±0.21
- lactose contents [1, 7]: 4.91%±0.06
- milk production [1, 7]: 35.19 ± 2.67 kg/day
- protein contents [1, 7]: 3.38%±0.07
- somatic cell scores [1, 7]: 5.19±0.27
- urea nitrogen contents [1, 7]: 15.79 ± 0.94 mg/dL
- dry matter contents [1, 8]: 13.48%±0.32
- fat contents [1, 8]: 4.66%±0.37
- lactose contents [1, 8]: 4.93%±0.06
- milk production [1, 8]: 30.34 ± 2.08 kg/day
- protein contents [1, 8]: 3.32%±0.07
- somatic cell scores [1, 8]: 5.03±0.29
- urea nitrogen contents [1, 8]: 15.11 ± 1.34 mg/dL
- dry matter contents ([1]; autumn, after injection): 14.10%±0.14
- fat contents ([1]; autumn, after injection): 4.68%±0.13
- lactose contents ([1]; autumn, after injection): 5.07%±0.04
- milk production ([1]; autumn, after injection): 32.07 ± 1.05 kg/day
- protein contents ([1]; autumn, after injection): 3.64%±0.05
- urea nitrogen contents ([1]; autumn, after injection): 11.72 ± 0.36 mg/dL
- somatic cell scores ([1]; autumn, after injection (second value of before VS after)): 4.55±0.16
- dry matter contents ([1]; end-lactation, after injection): 13.47%±0.13
- fat contents ([1]; end-lactation, after injection): 4.18%±0.12
- milk production ([1]; end-lactation, after injection): 31.25 ± 1.29 kg/day
- protein contents ([1]; end-lactation, after injection): 3.40%±0.04
- somatic cell scores ([1]; end-lactation, after injection): 1.99±0.15
- urea nitrogen contents ([1]; end-lactation, after injection): 12.04 ± 0.38 mg/dL
- dry matter contents ([1]; mid-lactation, after injection): 13.56%±0.14
- fat contents ([1]; mid-lactation, after injection): 4.22%±0.11
- lactose contents ([1]; mid-lactation, after injection): 5.19%±0.02
- milk production ([1]; mid-lactation, after injection): 39.08 ± 1.79 kg/day
- protein contents ([1]; mid-lactation, after injection): 3.45%±0.05
- somatic cell scores ([1]; mid-lactation, after injection): 2.00±0.17
- urea nitrogen contents ([1]; mid-lactation, after injection): 12.11 ± 0.54 mg/dL
- dry matter contents [1, 9]: 13.17%±0.29
- fat contents [1, 9]: 3.87%±0.26
- milk production [1, 9]: 38.80 ± 2.06 kg/day
- protein contents [1, 9]: 3.35%±0.06
- somatic cell scores [1, 9]: 2.04±0.24
- urea nitrogen contents [1, 9]: 11.12 ± 0.64 mg/dL
- dry matter contents ([1]; spring, after injection): 13.92%±0.15
- fat contents ([1]; spring, after injection): 4.78%±0.14
- lactose contents ([1]; spring, after injection): 4.94%±0.02
- milk production ([1]; spring, after injection): 32.11 ± 1.15 kg/day
- protein contents ([1]; spring, after injection): 3.49%±0.04
- urea nitrogen contents ([1]; spring, after injection): 14.35 ± 0.45 mg/dL
- somatic cell scores ([1]; spring, after injection (second value of before VS after), 2 mL/day s.c., 4 days, milk 15 days after): 4.89±0.15
- dry matter contents ([1]; summer, after injection): 13.42%±0.13
- fat contents ([1]; summer, after injection): 4.20%±0.12
- lactose contents ([1]; summer, after injection): 5.06%±0.02
- milk production ([1]; summer, after injection): 32.69 ± 1.00 kg/day
- protein contents ([1]; summer, after injection): 3.45%±0.04
- urea nitrogen contents ([1]; summer, after injection): 14.19 ± 0.50 mg/dL
- somatic cell scores ([1]; summer, after injection (second value of before VS after)): 4.09±0.20
- somatic cell score reduced by ([1]; whole year, n=328, p<0.01): 63.54%
- fat content of milk reduced by ([1]; whole year, n=328, p<0.05): 11.31%
- lactose content increased to ([1]; whole year, n=328, p<0.05): 4.74%
- protein content of milk increased by ([1]; whole year, n=328, p<0.05): 3.79%
- urea nitrogen content of milk reduced by ([1]; whole year, n=328, p<0.05): 11.08%
- dry matter contents ([1]; winter, after injection): 13.65%±0.12
- fat contents ([1]; winter, after injection): 4.75%±0.11
- lactose contents ([1]; winter, after injection): 4.84%±0.04
- milk production ([1]; winter, after injection): 31.82 ± 1.17 kg/day
- protein contents ([1]; winter, after injection): 3.43%±0.05
- urea nitrogen contents ([1]; winter, after injection): 15.94 ± 0.51 mg/dL
- somatic cell scores ([1]; winter, after injection (second value of before VS after)): 4.34±0.17
- concentration of alanine aminotransferase [2]: increase
- concentration of albumin [2]: increase
- concentration of cortisol [2]: reduce
- concentration of serum lactate dehydrogenase [2]: increase
- number of lymphocytes [2]: reduce
- number of neutrophils [2]: reduce
- number of white blood cells [2]: reduce
